From US7812022B2 (GlaxoSmithKline LLC, priority 2004, dated 2010)

What was measured:
ErbB2 or EGFR = molecular target: T1, ErbB2 or EGFR; experiment: ErbB family substrate phosphorylation enzyme assay (HTRF), Method A or Method B; type: biochemical; details: Method B: enzyme mix pre-incubated with compound 1 hour at 20° C., started with substrate mix
T1 construct: enzymes purified from a baculovirus expression system; Reagent production was conducted essentially as described in Brignola, P. S., et al, (2002) J. Biol. Chem. 277(2): 1576-1585
Summary of the method: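 Baculovirus-expressed EGFR or ErbB2 (0.8 or 10 nM in enzyme mix) phosphorylates biotinylated Peptide C with 20 µM ATP and 0.8 µM peptide (substrate-mix levels), MnCl2, pH 7.5. Reaction ran 90 min at 20 °C with EDTA stop and HTRF anti-phosphotyrosine read. Method A: enzyme added last; Method B: 1 h enzyme–compound preincubation.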

[1] = test system: BT474 and HN5 tumor cell lines; experiment: Celltiter Glo growth inhibition assay (cellular Method B); type: cell-based; details: Homo sapiens, BT-474, 72 h, 3 days, read-out: Activity (Method): growth inhibition IC50 class
Description: (§1) Human breast tumor cells (BT474) were cultured in RPMI, (Invitrogen, 22400) containing 10% fetal bovine serum (FBS). Human head and neck tumor cells (HN5) were cultured in low glucose DMEM (Invitrogen, 12320) containing 10% FBS. Human colon tumor cells (Colo205) were cultured in DMEM (Invitrogen, 10564) containing 10% FBS. All cell lines were maintained at 37° C. in a humidified 5% CO2, 95% air incubator. Cells were harvested using trypsin/EDTA, counted using a haemocytometer, and plated in 30 microliters of the appropriate media described above, at the following densities, in a half area, black-walled, 96-well tissue culture plate (Corning 3882): BT474 3,000 cells/well, HN5 500 cells/well and Colo205 cells, 3,000 cells/well. The next day, compounds were diluted in DMEM containing […] gentamicin, from 10 mM stock solutions in DMSO. 30 microliters/well of these dilutions were added to the 30 microliters/well of media currently on the cell plates. Medium containing 0.6% DMSO was added to control wells. The final concentration of DMSO in all wells was 0.3%. Cells were incubated at 37° C., 5% CO2 for 3 days. Cell biomass was estimated using Celltiter Glo (Promega G7571). Briefly, plates were removed from the incubator and allowed to equilibrate to rt for 30 minutes. 60 microliters of Celltiter Glo reagent were added to each well of the treated cells and plates were shaken on an orbital plate shaker for 2 min. Plates were incubated without shaking for 30 more min and read in a luminometer with an integration time of 0.5 seconds per well. Percent inhibition of cell growth was calculated relative to vehicle treated control wells. Concentration of compound that inhibits 50% of vehicle control cell growth (IC50) was interpolated using nonlinear regression (Levenberg-Marquardt) and the equation, y=Vmax*(1−(x/(K+x)))+Y2, where “K” was equal to the IC50.

Colo205 tumor cell lines [2] = experiment: Celltiter Glo growth inhibition assay (cellular Method B), Colo205; type: cell-based; details: Homo sapiens, COLO 205, 72 h, 3 days, read-out: Activity (Method): growth inhibition IC50 class
Description: as §1

[3] = test system: BT474 and HN5 tumor cell lines; experiment: Methylene blue growth inhibition assay (cellular Method A); type: cell-based, Human; details: Homo sapiens, BT-474, 72 h, 3 days, read-out: Activity (Method): growth inhibition IC50 class
Summary of the method: (§2)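 Growth inhibition measured by methylene blue staining of biomass (OD 620) after 3 days' compound exposure at 37° C, final DMSO 0.3%. Cell lines: BT474 (10,000/well), HN5 (3,000/well) and Colo205, all in DMEM with 10% FBS; IC50 fitted by nonlinear regression against vehicle-treated wells.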

Colo205 tumor cell lines [4] = experiment: Methylene blue growth inhibition assay (cellular Method A), Colo205; type: cell-based, Human; details: Homo sapiens, COLO 205, 72 h, 3 days, read-out: Activity (Method): growth inhibition IC50 class
Summary of the method: as §2

IC50 [1]	IC50 (Colo205 tumor cell lines [2])	IC50 [3]	IC50 (Colo205 tumor cell lines [4])	Compound	Activity (Method): pIC50 class against ErbB2 or EGFR (ErbB2 or EGFR)
< 100 nM	> 1000 nM			O=C(Nc1cccc(-c2nn3ccccc3c2-c2ccnc(Nc3cccc(F)c3)n2)c1)c1c(F)cccc1F [Example 115, 2,6-Difluoro-N-[3-(3-{2-[(3-fluorophenyl)amino]-4-pyrimidinyl}pyrazolo[1,5-a]pyridin-2-yl)phenyl]benzamide]	++ (B) (at least one pIC50 measurement greater than 6 against either ErbB2 or EGFR but no measurement greater than pIC50 of 7)
< 100 nM	> 1000 nM			CN(C)CCOc1ccc(Nc2nccc(-c3c(-c4cccc(NC(=O)c5c(F)cccc5F)c4)nn4ccccc34)n2)cc1Cl [Example 128, N-[3-(3-{2-[(3-Chloro-4-{[2-(dimethylamino)ethyl]-oxy}phenyl)amino]-4-pyrimidinyl}pyrazolo[1,5-a]pyridin-2-yl)phenyl]-2,6-difluorobenzamide]	+++ (B) (at least one pIC50 measurement of greater than 7 against either ErbB2 or EGFR)
< 100 nM	> 1000 nM			CS(=O)(=O)Cc1cccc(Nc2nccc(-c3c(-c4cccc(NC(=O)c5c(F)cccc5F)c4)nn4ccccc34)n2)c1 [Example 135, 2,6-Difluoro-N-(3-{3-[2-({3-[(methylsulfonyl)methyl]phenyl}amino)-4-pyrimidinyl]pyrazolo[1,5-a]pyridin-2-yl}phenyl)benzamide]	+++ (B) (at least one pIC50 measurement of greater than 7 against either ErbB2 or EGFR)
< 100 nM	< 100 nM			CS(=O)(=O)NCCOc1ccc(Nc2nccc(-c3c(-c4cccc(NC(=O)c5c(F)cccc5F)c4)nn4ccccc34)n2)cc1Cl [Example 163, N-{3-[3-(2-{[3-Chloro-4-({2-[(methylsulfonyl)amino]ethyl}-oxy)phenyl]amino}-4-pyrimidinyl)pyrazolo[1,5-a]pyridin-2-yl]phenyl}-2,6-difluorobenzamide]	+++ (B) (at least one pIC50 measurement of greater than 7 against either ErbB2 or EGFR)
< 100 nM	> 1000 nM			CN1CCN(CCCOc2ccc(Nc3nccc(-c4c(-c5cccc(NC(=O)c6c(F)cccc6F)c5)nn5ccccc45)n3)cc2Cl)CC1 [Example 164, N-[3-(3-{2-[(3-chloro-4-{[3-(4-methyl-1-piperazinyl)propyl]oxy}-phenyl)amino]-4-pyrimidinyl}pyrazolo[1,5-a]pyridin-2-yl)phenyl]-2,6-difluorobenzamide]	+++ (B) (at least one pIC50 measurement of greater than 7 against either ErbB2 or EGFR)
< 100 nM	> 1000 nM			CN(C)CCOc1cccc(Nc2nccc(-c3c(-c4cccc(NC(=O)c5c(F)cccc5F)c4)nn4cccc(F)c34)n2)c1 [Example 168, N-[3-(3-{2-[(3-{[2-(Dimethylamino)ethyl]oxy}phenyl)amino]-4-pyrimidinyl}-4-fluoropyrazolo[1,5-a]pyridin-2-yl)phenyl]-2,6-difluorobenzamide]	+++ (B) (at least one pIC50 measurement of greater than 7 against either ErbB2 or EGFR)
< 100 nM	> 1000 nM			CN1CCc2ccc(Nc3nccc(-c4c(-c5cccc(NC(=O)c6c(F)cccc6F)c5)nn5cccc(F)c45)n3)cc2C1 [Example 169, 2,6-Difluoro-N-[3-(4-fluoro-3-{2-[(2-methyl-1,2,3,4-tetrahydro-7-isoquinolinyl)amino]-4-pyrimidinyl}pyrazolo[1,5-a]pyridin-2-yl)phenyl]benzamide]	+++ (B) (at least one pIC50 measurement of greater than 7 against either ErbB2 or EGFR)
100 to 1000 nM	> 1000 nM			O=C(Nc1cccc(-c2nn3cccc(F)c3c2-c2ccnc(Nc3cccc(CN4CCCC4)c3)n2)c1)c1c(F)cccc1F [Example 170, 2,6-Difluoro-N-{3-[4-fluoro-3-(2-{[3-(1-pyrrolidinylmethyl)-phenyl]amino}-4-pyrimidinyl)pyrazolo[1,5-a]pyridin-2-yl]phenyl}benzamide]	+++ (B) (at least one pIC50 measurement of greater than 7 against either ErbB2 or EGFR)
< 100 nM	> 1000 nM			CN(C)CCOc1cccc(Nc2nccc(-c3c(-c4cccc(NC(=O)c5c(F)cccc5F)c4)nn4cc(F)ccc34)n2)c1 [Example 171, N-[3-(3-{2-[(3-{[2-(Dimethylamino)ethyl]oxy}phenyl)amino]-4-pyrimidinyl}-6-fluoropyrazolo[1,5-a]pyridin-2-yl)phenyl]-2,6-difluorobenzamide]	+++ (B) (at least one pIC50 measurement of greater than 7 against either ErbB2 or EGFR)
	100 to 1000 nM	< 100 nM		Cc1ncoc1-c1cccc(Nc2nccc(-c3c(-c4cccc(NC(=O)c5c(F)cccc5F)c4)nn4ccccc34)n2)c1 [Example 178, 2,6-Difluoro-N-{3-[3-(2-{[3-(4-methyl-1,3-oxazol-5-yl)phenyl]amino}-4-pyrimidinyl)pyrazolo[1,5-a]pyridin-2-yl]phenyl}benzamide]	+++ (B) (at least one pIC50 measurement of greater than 7 against either ErbB2 or EGFR)
		< 100 nM	100 to 1000 nM	CN(C)CCCOc1cccc(Nc2nccc(-c3c(-c4cccc(NC(=O)c5c(F)cccc5F)c4)nn4ccccc34)n2)c1 [Example 198, N-[3-(3-{2-[(3-{[3-(dimethylamino)propyl]oxy}phenyl)amino]-4-pyrimidinyl}pyrazolo[1,5-a]pyridin-2-yl)phenyl]-2,6-difluorobenzamide]	+++ (B) (at least one pIC50 measurement of greater than 7 against either ErbB2 or EGFR)
		< 100 nM	> 1000 nM	Cc1nc2cc(Nc3nccc(-c4c(-c5cccc(NC(=O)c6c(F)cccc6F)c5)nn5ccccc45)n3)ccc2s1 [Example 199, 2,6-Difluoro-N-[3-(3-{2-[(2-methyl-1,3-benzothiazol-5-yl)amino]-4-pyrimidinyl}pyrazolo[1,5-a]pyridin-2-yl)phenyl]benzamide]	+++ (B) (at least one pIC50 measurement of greater than 7 against either ErbB2 or EGFR)
		< 100 nM	100 to 1000 nM	O=C1COc2cc(Nc3nccc(-c4c(-c5cccc(NC(=O)c6c(F)cccc6F)c5)nn5ccccc45)n3)ccc2N1 [Example 200, 2,6-Difluoro-N-[3-(3-{2-[(3-oxo-3,4-dihydro-2H-1,4-benzoxazin-7-yl)amino]-4-pyrimidinyl}pyrazolo[1,5-a]pyridin-2-yl)phenyl]benzamide]	+++ (B) (at least one pIC50 measurement of greater than 7 against either ErbB2 or EGFR)
		< 100 nM	100 to 1000 nM	COc1ccc(Nc2nccc(-c3c(-c4cccc(NC(=O)c5c(F)cccc5F)c4)nn4ccccc34)n2)cc1N1CCN(C)CC1 [Example 201, 2,6-Difluoro-N-{3-[3-(2-{[4-(methyloxy)-3-(4-methyl-1-piperazinyl)phenyl]amino}-4-pyrimidinyl)pyrazolo[1,5-a]pyridin-2-yl]phenyl}benzamide]	+++ (B) (at least one pIC50 measurement of greater than 7 against either ErbB2 or EGFR)

Compound	IC50 [1]	IC50 (Colo205 tumor cell lines [2])	IC50 [3]	IC50 (Colo205 tumor cell lines [4])	Activity (Method): pIC50 class against ErbB2 or EGFR (ErbB2 or EGFR)
COc1ccc(Nc2nccc(-c3c(-c4cccc(NC(=O)c5c(F)cccc5F)c4)nn4ccccc34)n2)cc1OCCCN(C)C.O=CO [Example 165, N-{3-[3-(2-{[3-{[3-(Dimethylamino)propyl]oxy}-4-(methyloxy)-phenyl]amino}-4-pyrimidinyl)pyrazolo[1,5-a]pyridin-2-yl]phenyl}-2,6-difluorobenzamide formic acid salt]	< 100 nM	> 1000 nM			+++ (B) (at least one pIC50 measurement of greater than 7 against either ErbB2 or EGFR)
